{"source": "ChEMBL document CHEMBL5724796", "about": "“Tm Shift (DSF) assay results for EUbOPEN Chemogenomics Library” (2024)", "key": {"[1]": {"target": "Fibroblast growth factor receptor 2 (Homo sapiens) (UniProt P21802)", "sequence (P21802 22-821 limits assumed)": "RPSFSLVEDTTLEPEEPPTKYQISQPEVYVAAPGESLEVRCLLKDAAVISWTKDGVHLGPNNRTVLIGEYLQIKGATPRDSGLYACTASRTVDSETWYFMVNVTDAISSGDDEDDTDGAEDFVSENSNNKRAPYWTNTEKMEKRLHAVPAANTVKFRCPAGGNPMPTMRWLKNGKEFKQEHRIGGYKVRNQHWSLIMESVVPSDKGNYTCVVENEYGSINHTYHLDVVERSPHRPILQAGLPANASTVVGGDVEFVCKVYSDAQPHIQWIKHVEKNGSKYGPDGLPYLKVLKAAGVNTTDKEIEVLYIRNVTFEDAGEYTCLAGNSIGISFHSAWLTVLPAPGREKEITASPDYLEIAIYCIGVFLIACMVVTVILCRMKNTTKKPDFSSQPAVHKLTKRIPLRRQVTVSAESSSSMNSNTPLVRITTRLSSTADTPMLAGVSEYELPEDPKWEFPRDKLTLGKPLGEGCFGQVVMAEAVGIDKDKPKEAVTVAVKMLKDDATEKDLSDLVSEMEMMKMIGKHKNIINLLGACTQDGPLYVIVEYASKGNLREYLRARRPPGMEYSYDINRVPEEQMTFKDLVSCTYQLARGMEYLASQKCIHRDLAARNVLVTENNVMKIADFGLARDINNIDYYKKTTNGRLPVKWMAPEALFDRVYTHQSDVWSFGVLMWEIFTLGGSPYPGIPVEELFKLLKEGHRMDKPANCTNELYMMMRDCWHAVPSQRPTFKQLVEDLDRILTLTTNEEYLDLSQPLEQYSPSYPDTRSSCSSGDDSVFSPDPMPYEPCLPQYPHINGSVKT", "conditions": "Compound concentration 20.0 uM", "description": "Thermal Shift Assay. Domain: start/stop: T457-E768"}, "Peregrin (Homo sapiens)": {"target": "T1, Peregrin (Homo sapiens) (UniProt P55201)", "T1 sequence (whole entry)": "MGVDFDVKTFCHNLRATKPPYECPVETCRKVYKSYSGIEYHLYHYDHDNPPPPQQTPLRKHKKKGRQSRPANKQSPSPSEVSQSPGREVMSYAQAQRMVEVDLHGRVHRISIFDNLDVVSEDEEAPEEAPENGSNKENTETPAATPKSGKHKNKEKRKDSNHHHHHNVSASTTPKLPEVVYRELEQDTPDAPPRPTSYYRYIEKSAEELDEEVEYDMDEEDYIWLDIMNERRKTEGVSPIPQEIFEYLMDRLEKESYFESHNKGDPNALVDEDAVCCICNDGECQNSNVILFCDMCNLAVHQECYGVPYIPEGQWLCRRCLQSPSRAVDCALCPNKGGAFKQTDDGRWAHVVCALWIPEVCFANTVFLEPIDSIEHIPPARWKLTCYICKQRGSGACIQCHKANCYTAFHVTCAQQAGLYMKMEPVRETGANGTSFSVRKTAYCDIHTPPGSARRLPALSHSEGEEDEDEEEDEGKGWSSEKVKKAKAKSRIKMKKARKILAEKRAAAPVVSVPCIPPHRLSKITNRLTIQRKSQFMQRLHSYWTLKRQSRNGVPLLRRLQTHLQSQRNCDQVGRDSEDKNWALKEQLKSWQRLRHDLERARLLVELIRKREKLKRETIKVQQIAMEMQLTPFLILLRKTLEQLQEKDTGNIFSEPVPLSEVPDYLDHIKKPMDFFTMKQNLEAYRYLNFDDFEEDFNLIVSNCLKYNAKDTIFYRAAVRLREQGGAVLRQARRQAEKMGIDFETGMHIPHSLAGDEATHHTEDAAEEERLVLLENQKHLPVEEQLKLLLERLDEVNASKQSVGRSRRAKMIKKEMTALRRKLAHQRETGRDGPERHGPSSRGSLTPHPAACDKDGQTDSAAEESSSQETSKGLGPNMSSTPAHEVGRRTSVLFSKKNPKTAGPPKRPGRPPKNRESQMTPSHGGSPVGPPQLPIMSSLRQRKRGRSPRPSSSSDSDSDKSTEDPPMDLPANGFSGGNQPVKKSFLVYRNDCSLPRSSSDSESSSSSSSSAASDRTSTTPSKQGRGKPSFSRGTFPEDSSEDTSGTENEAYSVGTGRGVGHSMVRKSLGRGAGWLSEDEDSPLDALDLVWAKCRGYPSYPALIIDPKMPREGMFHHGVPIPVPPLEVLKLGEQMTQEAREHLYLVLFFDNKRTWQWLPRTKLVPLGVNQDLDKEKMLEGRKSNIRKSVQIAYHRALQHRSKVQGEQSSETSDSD", "conditions": "Compound concentration 20.0 uM"}}, "note": "Residues, ends and D or L forms follow the SMILES beside them. *: point of attachment. CH2Cl = ClC*"}
{"compound": "CC(=O)N[C@@H](Cc1ccccc1)C(=O)N[C@@H](CC(C)C)C(=O)N[C@H](C(=O)N[C@@H](CC(=O)O)C(=O)CCl)[C@@H](C)O", "note": "(Ac-FLTD-CH2Cl)", "values": [{"measurement": "ΔTm", "setting": "[1]", "value": 0.77, "unit": "°C"}, {"measurement": "ΔTm", "setting": "Peregrin (Homo sapiens)", "value": -1.18, "unit": "°C"}]}
{"compound": "COc1ccc(C(=O)C2CCN(CC(=O)N(Cc3nc4c(c(=O)[nH]3)COCC4)CC3CC3)CC2)cc1", "values": [{"measurement": "ΔTm", "setting": "[1]", "value": -0.62, "unit": "°C"}, {"measurement": "ΔTm", "setting": "Peregrin (Homo sapiens)", "value": 2.73, "unit": "°C"}]}
{"compound": "CCCCN(Cc1ccc(C(=O)NO)cc1)C(=O)Nc1ccccc1", "values": [{"measurement": "ΔTm", "setting": "[1]", "value": -0.44, "unit": "°C"}, {"measurement": "ΔTm", "setting": "Peregrin (Homo sapiens)", "value": -0.92, "unit": "°C"}]}
{"compound": "CCN(CC)S(=O)(=O)c1cc(Nc2nccc(-c3ccnc(-c4ccc(NC(=O)NC)cc4)c3)n2)ccc1Cl", "values": [{"measurement": "ΔTm", "setting": "[1]", "value": -4.8, "unit": "°C"}, {"measurement": "ΔTm", "setting": "Peregrin (Homo sapiens)", "value": -7.45, "unit": "°C"}]}
{"compound": "CC1(C)c2cccc(C(=O)NO)c2CN1c1cnc(C(F)(F)F)cn1", "values": [{"measurement": "ΔTm", "setting": "[1]", "value": 0.83, "unit": "°C"}, {"measurement": "ΔTm", "setting": "Peregrin (Homo sapiens)", "value": 0.66, "unit": "°C"}]}
{"compound": "CC(C)C(=O)SCCCCCCC(=O)Nc1nc(-c2ccccc2)cs1", "values": [{"measurement": "ΔTm", "setting": "[1]", "value": 1.03, "unit": "°C"}, {"measurement": "ΔTm", "setting": "Peregrin (Homo sapiens)", "value": -1.14, "unit": "°C"}]}
{"compound": "CN(CCOc1ccc(-c2ccc3c(c2)OCO3)cc1C(C)(C)C)CC(=O)O", "values": [{"measurement": "ΔTm", "setting": "[1]", "value": -0.25, "unit": "°C"}, {"measurement": "ΔTm", "setting": "Peregrin (Homo sapiens)", "value": 2.31, "unit": "°C"}]}
{"compound": "CCOc1ccc(Cc2cc([C@]34OC[C@](CO)(O3)[C@@H](O)[C@H](O)[C@H]4O)ccc2Cl)cc1", "values": [{"measurement": "ΔTm", "setting": "[1]", "value": 0.47, "unit": "°C"}, {"measurement": "ΔTm", "setting": "Peregrin (Homo sapiens)", "value": 0.95, "unit": "°C"}]}
{"compound": "Cn1cc(NC(=O)c2cc(F)cc(F)c2)c(C(=O)NC2CCNCC2)n1", "values": [{"measurement": "ΔTm", "setting": "[1]", "value": 0.66, "unit": "°C"}, {"measurement": "ΔTm", "setting": "Peregrin (Homo sapiens)", "value": -1.44, "unit": "°C"}]}
{"compound": "Nc1ccccc1NC(=O)CCCCCC(=O)Nc1ccccc1", "values": [{"measurement": "ΔTm", "setting": "[1]", "value": 0.58, "unit": "°C"}, {"measurement": "ΔTm", "setting": "Peregrin (Homo sapiens)", "value": -1.41, "unit": "°C"}]}
{"compound": "OC1CN=C2c3ccn([C@@H]4O[C@H]([C@H](O)c5ccc(Cl)cc5)[C@@H](O)[C@H]4O)c3N=CN21", "note": "(some centres undefined)", "values": [{"measurement": "ΔTm", "setting": "[1]", "value": 0.52, "unit": "°C"}, {"measurement": "ΔTm", "setting": "Peregrin (Homo sapiens)", "value": -0.74, "unit": "°C"}]}
{"compound": "Cc1cc(/N=N/c2ccc(S(=O)(=O)NC3CCCC3)cc2)c(N)cc1O", "values": [{"measurement": "ΔTm", "setting": "[1]", "value": 2.06, "unit": "°C"}, {"measurement": "ΔTm", "setting": "Peregrin (Homo sapiens)", "value": 7.73, "unit": "°C"}]}
{"compound": "COc1ccc([C@@H]2CNC(=O)C2)cc1OC1CCCC1", "values": [{"measurement": "ΔTm", "setting": "[1]", "value": -0.37, "unit": "°C"}, {"measurement": "ΔTm", "setting": "Peregrin (Homo sapiens)", "value": 0.39, "unit": "°C"}]}
{"compound": "CC1(NC(=O)COc2cccc(-c3nc4c(c(Nc5ccc(-c6cn[nH]c6)cc5)n3)CN(C3CCC3)CC4)c2)CC1", "values": [{"measurement": "ΔTm", "setting": "[1]", "value": -0.36, "unit": "°C"}, {"measurement": "ΔTm", "setting": "Peregrin (Homo sapiens)", "value": 1.53, "unit": "°C"}]}
{"compound": "COc1ccccc1S(=O)(=O)Nc1ccc2c(c1)CN(C)C(=O)N2", "values": [{"measurement": "ΔTm", "setting": "[1]", "value": -0.59, "unit": "°C"}, {"measurement": "ΔTm", "setting": "Peregrin (Homo sapiens)", "value": 1.9, "unit": "°C"}]}
{"compound": "CCN(CC)c1ccc(C2=NNC(=O)C[C@H]2C)cc1[N+](=O)[O-]", "values": [{"measurement": "ΔTm", "setting": "[1]", "value": 0.2, "unit": "°C"}, {"measurement": "ΔTm", "setting": "Peregrin (Homo sapiens)", "value": 1.09, "unit": "°C"}]}
{"compound": "COc1cn(-c2ccc(-n3cccn3)cc2F)nc(-c2ccnn2-c2ccccc2)c1=O", "values": [{"measurement": "ΔTm", "setting": "[1]", "value": 0.54, "unit": "°C"}, {"measurement": "ΔTm", "setting": "Peregrin (Homo sapiens)", "value": 1.13, "unit": "°C"}]}
{"compound": "COc1cc2c(cc1-c1c(C)noc1C)[nH]c1nc(C)nc(-c3ccnc4ccccc34)c12", "values": [{"measurement": "ΔTm", "setting": "[1]", "value": -1.02, "unit": "°C"}, {"measurement": "ΔTm", "setting": "Peregrin (Homo sapiens)", "value": 1.04, "unit": "°C"}]}
{"compound": "Cc1nc2ccccn2c1C(=O)CN1CCN(c2ccc(F)cn2)CC1", "values": [{"measurement": "ΔTm", "setting": "[1]", "value": -0.08, "unit": "°C"}, {"measurement": "ΔTm", "setting": "Peregrin (Homo sapiens)", "value": 0.49, "unit": "°C"}]}
{"compound": "CCn1c(=S)[nH]c2cc3c(NCc4ccccc4N4CCC(CO)CC4)ncnc3cc21", "values": [{"measurement": "ΔTm", "setting": "[1]", "value": -0.06, "unit": "°C"}, {"measurement": "ΔTm", "setting": "Peregrin (Homo sapiens)", "value": 1.64, "unit": "°C"}]}
{"compound": "CC(C)(C)NS(=O)(=O)c1ccc(NC(=O)[C@H](Cc2ccccc2)NC(=O)c2ccc(F)cc2)cc1", "values": [{"measurement": "ΔTm", "setting": "[1]", "value": 0.56, "unit": "°C"}, {"measurement": "ΔTm", "setting": "Peregrin (Homo sapiens)", "value": 0.73, "unit": "°C"}]}
{"compound": "CC(C)NC(=O)c1ccc(OC(F)F)c(OCC2CC2)c1", "values": [{"measurement": "ΔTm", "setting": "[1]", "value": 0.29, "unit": "°C"}, {"measurement": "ΔTm", "setting": "Peregrin (Homo sapiens)", "value": 0.69, "unit": "°C"}]}
